One test relates to MIA PaCa-2. Kind of test: Anti-proliferation 2D CTG test (MIA PaCa-2). It counts as cell-based. Conditions: MIAPACA-2 cells, 500 cells/well, 5 days incubation with compound, CTG readout. Summed up: (§1)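 H358 (1500 cells/well) and MIA PaCa-2 (500 cells/well) seeded overnight, then treated 5 days at 37 °C with 10-point 1:3 dilutions, top final […], 0.5% DMSO. Viability by CellTiter-Glo luminescence; IC50 from four-parameter fit normalized to plate controls.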

The next test relates to H358. Briefly: Anti-proliferation 2D CTG test (H358). It counts as cell-based. Conditions: H358 cells, 1500 cells/well, 5 days incubation with compound, CTG readout. Summed up:
as §1

Setting [1] is: Homo sapiens, MIA PaCa-2, 120 h.

By IC50 is commonly meant the concentration at which inhibition is half-maximal.

On to `C=CC(=O)N1CCN(c2nc(=O)n3c4nc(c(F)cc24)-c2c(F)cccc2OCC(OC(=O)C(C)C)C(OC(=O)C(C)C)c2ccnc(C(C)C)c2-3)[C@@H](C)C1` (stereo partly drawn) [Example 13, 2^4-((S)-4-acryloyl-2-methylpiperazin-1-yl)-2^6,3^6-difluoro-1^2-isopropyl-2^2-oxo-2^1,2^2-dihydro-4-oxa-2(1,7)-pyrido[2,3-d]pyrimidina-1(3,4)-pyridina-3(1,2)-benzocycloheptane-6,7-diyl di(2-methylpropionate)], for which the IC50 with MIA PaCa-2 (setting [1]) came out at 5 nM; in the test with H358 (Homo sapiens, NCI-H358, 120 h), 5 nM.

With `C=CC(=O)N1CCN(c2nc(=O)n3c4nc(c(F)cc24)-c2c(F)cccc2OCC(OC)C(O)c2ccnc(C(C)C)c2-3)[C@@H](C)C1` (stereo partly drawn) [Example 27, 24-((S)-4-acryloyl-2-methylpiperazin-1-yl)-6-methoxy-2^6,3^6-difluoro-7-hydroxy-1^2-isopropyl-2^1,2^2-dihydro-4-oxa-2(1,7)-pyrido[2,3-d]pyrimidina-1(3,4)-pyridina-3(1,2)-benzocycloheptane-2^2-one], the IC50 was found to be 4 nM with MIA PaCa-2 (setting [1]) and 9 nM with H358 (Homo sapiens, NCI-H358, 120 h).

As to `C=CC(=O)N1C[C@H](C)N(c2nc(=O)n3c4nc(c(F)cc24)-c2c(F)cccc2OCC(O)C(OC(C)=O)c2ccnc(C(C)C)c2-3)C[C@H]1C` (stereo partly drawn) [Example 8, 2^4-((2S,5R)-4-acryloyl-2,5-dimethylpiperazin-1-yl)-2^6,3^6-difluoro-6-hydroxy-1^2-isopropyl-2^2-oxo-2^1,2^2-dihydro-4-oxa-2(1,7)-pyrido[2,3-d]pyrimidina-1(3,4)-pyridina-3(1,2)-benzocycloheptane-7-yl acetate], the IC50 in the test with MIA PaCa-2 (setting [1]) worked out at 3 nM; with H358 (Homo sapiens, NCI-H358, 120 h), 9 nM.

For the compound `C=CC(=O)N1CCN(c2nc(=O)n3c4nc(c(F)cc24)-c2c(F)cccc2OCC(O)C(OC(=O)OC(C)(C)C)c2ccnc(C(C)C)c2-3)[C@@H](C)C1` (stereo partly drawn) [Example 11, 2^4-((S)-4-acryloyl-2-methylpiperazin-1-yl)-2^6,3^6-difluoro-6-hydroxy-1^2-isopropyl-2^2-oxo-2^1,2^2-dihydro-4-oxa-2(1,7)-pyrido[2,3-d]pyrimidina-1(3,4)-pyridina-3(1,2)-benzocycloheptane-7-yl tert-butylcarbonate], the IC50 with MIA PaCa-2 (setting [1]) came to 21 nM; with H358 (Homo sapiens, NCI-H358, 120 h), 26 nM.

`C=CC(=O)N1CCN(c2nc(=O)n3c4nc(c(F)cc24)-c2c(ccc(Cl)c2F)OCC(OCC)C(O)c2ccnc(C(C)C)c2-3)[C@@H](C)C1` (stereo partly drawn) [Example 75, (R)-2^4-((S)-4-acryloyl-2-methylpiperazin-1-yl)-3^5-chloro-6-ethoxy-2^6,3^6-difluoro-7-hydroxy-1^2-isopropyl-2^1,2^2-dihydro-4-oxa-2(1,7)-pyrido[2,3-d]pyrimidina-1(3,4)-pyridina-3(1,2)-benzocycloheptane-2^2-one]: the IC50 in the test with MIA PaCa-2 is 6 nM; with H358, 3 nM.

In the case of `C=CC(=O)N1CCN(c2nc(=O)n3c4nc(c(F)cc24)-c2c(F)cccc2OCC(OCC)C(O)c2ccnc(C(C)C)c2-3)[C@@H](C)C1` (stereo partly drawn) [Example 46, (S)-2^4-((S)-4-acryloyl-2-methylpiperazin-1-yl)-6-ethoxy-2^6,3^6-difluoro-7-hydroxy-1^2-isopropyl-2^1,2^2-dihydro-4-oxa-2(1,7)-pyrido[2,3-d]pyrimidina-1(3,4)-pyridina-3(1,2)-benzocycloheptane-2^2-one], the figures for the IC50 with MIA PaCa-2 and in the test on H358 were 148 nM and 261 nM, respectively.

As to `C=CC(=O)N1CCN(c2nc(=O)n3c4nc(c(F)cc24)-c2c(F)cccc2OCC(O)C(OC(=O)CC)c2ccnc(C(C)C)c2-3)[C@@H](C)C1` (stereo partly drawn) [Example 6, 2^4-((S)-4-acryloyl-2-methylpiperazin-1-yl)-2^6,3^6-difluoro-6-hydroxy-1^2-isopropyl-2^2-oxo-2^1,2^2-dihydro-4-oxa-2(1,7)-pyrido[2,3-d]pyrimidina-1(3,4)-pyridina-3(1,2)-benzocycloheptane-7-yl propionate], the IC50 turned out to be 10 nM in the test with MIA PaCa-2 (setting [1]) and 10 nM with H358 (Homo sapiens, NCI-H358, 120 h).

For the compound `C=CC(=O)N1CCN(c2nc(=O)n3c4nc(c(F)cc24)-c2c(F)cccc2OCC(OC(C)C)C(O)c2ccnc(C(C)C)c2-3)[C@@H](C)C1` (stereo partly drawn) [Example 55, (R)-2^4-((S)-4-acryloyl-2-methylpiperazin-1-yl)-6-isopropoxy-2^6,3^6-difluoro-7-hydroxy-1^2-isopropyl-2^1,2^2-dihydro-4-oxa-2(1,7)-pyrido[2,3-d]pyrimidina-1(3,4)-pyridina-3(1,2)-benzocycloheptane-2^2-one], the IC50 was found to be 7 nM in the test on MIA PaCa-2 and 8 nM in the test with H358.

For the compound `C=CC(=O)N1CCN(c2nc(=O)n3c4nc(c(F)cc24)-c2c(F)cccc2OCC(OC)C(OC)c2ccnc(C(C)C)c2-3)[C@@H](C)C1` (stereo partly drawn) [Example 59, 2^4-((S)-4-acryloyl-2-methylpiperazin-1-yl)-2^6,3^6-difluoro-1^2-isopropyl-6,7-dimethoxy-2^1,2^2-dihydro-4-oxa-2(1,7)-pyrido[2,3-d]pyrimidina-1(3,4)-pyridina-3(1,2)-benzocycloheptane-2^2-one], the half-inhibitory concentration (IC50) was found to be 9 nM in the test with MIA PaCa-2 (setting [1]) and 23 nM with H358 (Homo sapiens, NCI-H358, 120 h).

`C=CC(=O)N1CCN(c2nc(=O)n3c4nc(c(F)cc24)-c2c(F)cccc2OCC(OC(C)C)C(O)c2ccnc(C(C)C)c2-3)[C@@H](C)C1` (stereo partly drawn) [Example 34, 2^4-((S)-4-acryloyl-2-methylpiperazin-1-yl)-6-isopropoxy-2^6,3^6-difluoro-7-hydroxy-1^2-isopropyl-2^1,2^2-dihydro-4-oxa-2(1,7)-pyrido[2,3-d]pyrimidina-1(3,4)-pyridina-3(1,2)-benzocycloheptane-2^2-one]: the IC50 in the test with MIA PaCa-2 worked out at 7 nM; with H358 it was 4 nM.

For `C=CC(=O)N1CCN(c2nc(=O)n3c4nc(c(F)cc24)-c2c(F)cccc2OCC(OCC(F)F)C(O)c2ccnc(C(C)C)c2-3)[C@@H](C)C1` (stereo partly drawn) [Example 54, (S)-2^4-((S)-4-acryloyl-2-methylpiperazin-1-yl)-6-(2,2-difluoroethoxy)-2^6,3^6-difluoro-7-hydroxy-1^2-isopropyl-2^1,2^2-dihydro-4-oxa-2(1,7)-pyrido[2,3-d]pyrimidina-1(3,4)-pyridina-3(1,2)-benzocycloheptane-2^2-one], the IC50 is 708 nM with MIA PaCa-2 and 830 nM with H358.

Turning to `C=CC(=O)N1CCN(c2nc(=O)n3c4nc(c(F)cc24)-c2c(F)cccc2OCC(=O)C(OC(C)=O)c2ccnc(C(C)C)c2-3)[C@@H](C)C1` (stereo partly drawn) [Example 19, 2^4-((S)-4-acryloyl-2-methylpiperazin-1-yl)-2^6,3^6-difluoro-1^2-isopropyl-2^2,6-dioxo-2^1,2^2-dihydro-4-oxa-2(1,7)-pyrido[2,3-d]pyrimidina-1(3,4)-pyridina-3(1,2)-benzocycloheptane-7-yl acetate], the IC50 in the test on MIA PaCa-2 (setting [1]) came out at 18 nM; in the test with H358 (Homo sapiens, NCI-H358, 120 h), 18 nM.

In the case of `C=CC(=O)N1C[C@H](C)N(c2nc(=O)n3c4nc(c(F)cc24)-c2c(F)cccc2OCC(OCC)C(O)c2ccnc(C(C)C)c2-3)C[C@H]1C` (stereo partly drawn) [Example 36, (R)-2^4-((2S,5R)-4-acryloyl-2,5-dimethylpiperazin-1-yl)-6-ethoxy-2^6,3^6-difluoro-7-hydroxy-1^2-isopropyl-2^1,2^2-dihydro-4-oxa-2(1,7)-pyrido[2,3-d]pyrimidina-1(3,4)-pyridina-3(1,2)-benzocycloheptane-2^2-one], the IC50 was determined as 1 nM in the test on MIA PaCa-2 (setting [1]) and 1 nM with H358 (Homo sapiens, NCI-H358, 120 h).

For `C=CC(=O)N1CCN(c2nc(=O)n3c4nc(c(F)cc24)-c2c(F)cccc2OCC(OCC(F)F)C(O)c2ccnc(C(C)C)c2-3)[C@@H](C)C1` (stereo partly drawn) [Example 53, (R)-2^4-((S)-4-acryloyl-2-methylpiperazin-1-yl)-6-(2,2-difluoroethoxy)-2^6,3^6-difluoro-7-hydroxy-1^2-isopropyl-2^1,2^2-dihydro-4-oxa-2(1,7)-pyrido[2,3-d]pyrimidina-1(3,4)-pyridina-3(1,2)-benzocycloheptane-2^2-one], the IC50 in the test on MIA PaCa-2 worked out at 16 nM; in the test with H358, 17 nM.

Take `C=CC(=O)N1CCN(c2nc(=O)n3c4nc(c(F)cc24)-c2c(ccc(Cl)c2F)OCC(O)C(OCC)c2ccnc(C(C)C)c2-3)[C@@H](C)C1` (stereo partly drawn) [Example 68, 2^4-((S)-4-acryloyl-2-methylpiperazin-1-yl)-3^5-chloro-7-ethoxy-2^6,3^6-difluoro-6-hydroxy-1^2-isopropyl-2^1,2^2-dihydro-4-oxa-2(1,7)-pyrido[2,3-d]pyrimidina-1(3,4)-pyridina-3(1,2)-benzocycloheptane-2^2-one]: the IC50 came to 22 nM with MIA PaCa-2 and 27 nM in the test on H358.

As for `C=CC(=O)N1CCN(c2nc(=O)n3c4nc(c(F)cc24)-c2c(F)cccc2OCC2OC(=O)OC2c2ccnc(C(C)C)c2-3)[C@@H](C)C1` (stereo partly drawn) [Example 62, 11-((S)-4-acryloyl-2-methylpiperazin-1-yl)-15,21-difluoro-7-isopropyl-3a,20a-dihydro-9H,20H-12,14-(epiethane[1,2]diylidene)benzo[b][1,3]dioxazolo[4,5-j]pyrido[3,4-h]pyrimido[6,1-f][1]oxa[5,7]diazacyclodidecyne-2,9-dione], the IC50 in the test on MIA PaCa-2 (setting [1]) was found to be 16 nM; in the test with H358 (Homo sapiens, NCI-H358, 120 h) it was 20 nM.

The values above are taken from patent US20240101573A1, “MACROCYCLIC K-RAS G12C INHIBITOR, PREPARATION METHOD THEREFOR AND USE THEREOF” (Abbisko Therapeutics Co., Ltd., priority 2020, published 2024).
